{"source": "paper PMC10756276", "about": "“Highly specific σ2R/TMEM97 ligand FEM-1689 alleviates neuropathic pain and inhibits the integrated stress response” (Proceedings of the National Academy of Sciences of the …, 2023)", "key": {"[1]": {"target": "5HT1D (Homo sapiens, UniProt P28221)", "sequence (P28221 whole entry)": "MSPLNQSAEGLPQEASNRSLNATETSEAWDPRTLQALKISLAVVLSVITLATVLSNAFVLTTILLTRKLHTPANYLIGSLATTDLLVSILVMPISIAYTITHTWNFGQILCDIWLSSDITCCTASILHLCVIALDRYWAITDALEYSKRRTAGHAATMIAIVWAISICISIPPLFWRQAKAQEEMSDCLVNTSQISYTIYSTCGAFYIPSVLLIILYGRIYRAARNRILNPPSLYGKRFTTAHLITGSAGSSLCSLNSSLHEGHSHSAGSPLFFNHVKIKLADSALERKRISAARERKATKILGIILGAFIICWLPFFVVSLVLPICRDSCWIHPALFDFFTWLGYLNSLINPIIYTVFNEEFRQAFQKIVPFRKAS", "assay": "PDSP competitive binding assay", "conditions": "10 µM test article; read-out: Ki: primary assay inhibition of radioligand binding, 5HT1D"}, "[2]": {"target": "T1, Alpha2c (Homo sapiens, UniProt P18825)", "T1 construct": "purchased NIMH Psychoactive Drug Screening Program (PDSP), University of North Carolina at Chapel Hill", "T1 sequence (P18825 whole entry)": "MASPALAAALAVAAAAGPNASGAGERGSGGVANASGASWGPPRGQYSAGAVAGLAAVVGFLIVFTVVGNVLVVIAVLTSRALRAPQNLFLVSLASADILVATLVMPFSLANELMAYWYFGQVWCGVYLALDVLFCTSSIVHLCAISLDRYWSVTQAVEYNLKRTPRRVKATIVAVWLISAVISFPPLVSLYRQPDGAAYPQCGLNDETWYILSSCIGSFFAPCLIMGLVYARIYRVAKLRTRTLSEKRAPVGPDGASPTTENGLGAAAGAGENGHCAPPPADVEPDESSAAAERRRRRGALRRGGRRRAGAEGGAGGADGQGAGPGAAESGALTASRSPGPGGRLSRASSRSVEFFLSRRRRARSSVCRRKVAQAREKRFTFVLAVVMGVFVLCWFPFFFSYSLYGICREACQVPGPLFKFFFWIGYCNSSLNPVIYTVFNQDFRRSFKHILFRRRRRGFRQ", "assay": "PDSP competitive binding assay", "conditions": "10 µM test article; read-out: Ki: primary assay inhibition of radioligand binding, Alpha2c"}, "[3]": {"target": "T2, Beta 3 (Homo sapiens, UniProt P13945)", "T2 construct": "purchased NIMH Psychoactive Drug Screening Program (PDSP), University of North Carolina at Chapel Hill", "T2 sequence (P13945 whole entry)": "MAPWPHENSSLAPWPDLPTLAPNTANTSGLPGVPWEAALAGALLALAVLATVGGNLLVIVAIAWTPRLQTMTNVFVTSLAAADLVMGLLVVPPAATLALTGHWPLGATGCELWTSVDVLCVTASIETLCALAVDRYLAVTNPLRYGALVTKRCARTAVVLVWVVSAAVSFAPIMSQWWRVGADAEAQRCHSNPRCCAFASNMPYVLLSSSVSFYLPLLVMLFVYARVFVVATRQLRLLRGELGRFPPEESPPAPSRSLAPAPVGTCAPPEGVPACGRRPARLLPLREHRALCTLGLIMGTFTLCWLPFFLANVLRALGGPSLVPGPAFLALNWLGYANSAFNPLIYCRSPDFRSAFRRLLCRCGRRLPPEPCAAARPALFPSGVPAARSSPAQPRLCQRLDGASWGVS", "assay": "PDSP competitive binding assay", "conditions": "10 µM test article; read-out: Ki: primary assay inhibition of radioligand binding, Beta 3"}, "[4]": {"system": "mouse DRG neurons", "assay": "Neurite outgrowth, Sholl analysis", "type": "cell-based", "conditions": "100 nM, wild-type neurons", "procedure": "Sholl analysis was performed using the Neuroanatomy plugin in ImageJ according to the authors’ recommendations ([77]). Only solitary cells were used for analysis. The area under the curve was calculated using GraphPad Prism. More details are available in SI Appendix. […]\ngently layered onto 3 mL of 10% bovine serum albumin (BSA, BioPharm #71- 040-002) in HBSS in a 15 ml falcon tube. T his BSA gradient containing the cells was centrifuged at 900g for 5 min at room temperatur e.\nThe pellet containing the cells was resuspended in Br ainPhys media (STEMCell #05790) containing 2% […]\n1% Gluta Max (Gibco # 350 5 0061). Hu man DRG ne uron s were plated a nd grown o n glass coverslips coate d with po ly-D-lysine (Sigma #P7405). C ultured D RG neurons were plated for 24 hours before being treated.\nMethylglyoxal (Sigma- Aldrich #M0252) and F EM- 1689 were serially diluted in media.\nMouse samples - DRG cultures […]\nanesthesia and decapitated. […]\nsection above with minor differences.\nMouse DRG neurons were grown in\nSAS-0132 and DKR-1677 were […]\ndissolved in 100% DMSO to a final concentr ation of 200mM and stored at - 20 °C. and DKR-1677 were serially diluted in media. […]\nCultured mouse DRG neur ons from wild- type and TMEM97KO animals were treated w ith either vehicle or FEM-1689 (100 nM). […] The area under the curve was calculated using Graph Pad […]"}}, "note": "“Also recorded” adds a separate entry of the source."}
{"smiles": "OCCCN1CC[C@@H]2C[C@H]1c1cc(-c3ccc(C(F)(F)F)cc3)ccc12", "note": "[FEM-1689]", "values": [{"measurement": "inhibition at 10 µM", "setting": "[1]", "result": "< 50", "unit": "%"}, {"measurement": "inhibition at 10 µM", "setting": "[2]", "result": "< 50", "unit": "%"}, {"measurement": "inhibition at 10 µM", "setting": "[3]", "result": "< 50", "unit": "%"}, {"measurement": "neurite outgrowth (Sholl analysis)", "setting": "[4]", "result": "increase in the number and complexity of neurites in wild-type neurons; also recorded: promoted neurite outgrowth in wild-type neurons"}]}
